{"source": "patent US11685902B2", "about": "“Production method for kidney-like tissue” (Tokushima University, priority 2016, dated 2023)", "key": {"[1]": {"tested_on": "kidney-like microspheres (HUVEC, hMSC, HEK, hMC, HK2)", "assay_type": "cell-based, human", "protocol": "Kidney-like organoids were produced in vitro by co-culturing endothelial cells (HUVEC), mesenchymal stem cells (hMSC), and human embryonic kidney cells (HEK) with human mesangial cells (hMC) and human renal tubular cells (HK2). 5×10^4 hMSC, 2×10^5 HUVEC, 5×10^4 HEK, 5×10^4 hMC, and 5×10^4 HK 2 were suspended in 2 ml 10% FCS or MSCGM, and seeded in a MicroWell culture plate. After incubation in a 5% CO2 humidified incubator at 37° C. for 24 hours, formation of cell aggregates and microspheres was observed (FIG. 6). The resulting kidney-like microspheres maintained their spherical morphology for 20 days or longer. • 7. Analysis of Gene Expression\nRT-PCR analysis was performed on mRNA of kidney-like microspheres using five types of cells. Total RNA was extracted from the spheres using a TRIzol reagent (Invitrogen), and reverse-transcribed with an oligo (dT) primer using a SuperScript First-Strand Synthesis kit (Invitrogen) to produce first-strand cDNA. Subsequently, PCR was performed to detect the expression of renal tubular cell-specific genes, renal tubular injury marker (epithelial-mesenchymal transition (EMT)) genes, and GAPDH. […] The influence of cisplatin was analyzed by adding cisplatin to the culture solution to a final concentration of 5 μM, and extracting RNA after 3 hours and after 24 hours for analysis. […]"}, "[2]": {"tested_on": "three-dimensional kidney-like tissue (embryonic kidney cells, mesenchymal stem cells, vascular endothelial cells)", "assay": "Kidney model (podocyte injury): three-dimensional kidney-like tissue exposed to puromycin, nephrin qRT-PCR", "assay_type": "cell-based", "settings": "puromycin 50 μg/ml, 24 hours, qRT-PCR (FIG. 10)", "protocol": "Embryonic kidney cells, mesenchymal stem cells, and vascular endothelial cells were co-cultured for 24 hours to obtain a self-organized, three-dimensional kidney-like tissue. The kidney-like tissue was exposed to puromycin at a concentration of 50 μg/ml. After 24 hours, spheres were collected. After extraction of RNA, changes in nephrin gene expression were analyzed by the qRT-PCR method (FIG. 10). […] Using this model allows for screening an effective drug for podocyte injury. • 12. Use as Pathophysiological Analysis System for Human Refractory Renal Disease"}, "[3]": {"tested_on": "three-dimensional kidney-like tissue (embryonic kidney cells, mesenchymal stem cells, proximal renal tubular cells, vascular endothelial cells)", "assay_type": "cell-based", "protocol": "Embryonic kidney cells, mesenchymal stem cells, proximal renal tubular cells, and vascular endothelial cells were co-cultured for 24 hours to obtain a self-organized, three-dimensional kidney-like tissue (FIG. 9 (A)). This was exposed to cisplatin at a concentration of 5 μM, and spheres were collected after 3 hours and after 24 hours. After extraction of RNA, changes in gene expression were analyzed by the RT-PCR method. After the culture solution of the spheres was collected and cell components were separated by centrifugation, β2 microglobulin was measured with a “Lumipulse Presto β2-M” (produced by Fujirebio, Inc.) kit (FIG. 9 (B)). Further, changes in the shape of the spheres were imaged using an optical microscope (FIG. 9 (C)). […] Use of Microspheres as Kidney Model (Podocyte Injury)"}}}
{"smiles": "CN(C)C(=N)N=C(N)N", "note": "[metformin]", "values": [{"measurement": "abnormal changes in gene expression in acute kidney injury caused by cisplatin", "setting": "[1]; pre-administration, 3 hours after cisplatin administration (left side of FIG. 7)", "result": "inhibited"}]}
{"smiles": "COc1ccc(C[C@H](N)C(=O)N[C@H]2[C@@H](O)[C@H](n3cnc4c(N(C)C)ncnc43)O[C@@H]2CO)cc1", "note": "[puromycin]", "values": [{"measurement": "podocyte injury (changes in nephrin gene expression)", "setting": "[2]", "result": "podocyte injury model, which was conventionally prepared by using mice, can be reproduced"}]}
{"smiles": "N.N.[Cl][Pt][Cl]", "note": "[cisplatin]", "values": [{"measurement": "expression of genes constitutively expressed in podocytes", "setting": "[1]", "result": "reduction"}, {"measurement": "renal damage reflected by analysis results (gene expression, β2 microglobulin, sphere shape)", "setting": "[3]", "result": "renal tubular injury at the acute phase and podocyte injury at the chronic phase"}]}
